Patent US20260132547A1, “NOVEL PHAGE LIBRARIES OF BICYCLIC PEPTIDES” (priority 2024, published 2026)
Entries after “also recorded” stand apart in the source; their conditions may differ. Values belong to the molecule of their own block, whether it stands above or below them. Numbered stars: 1 amine (or outer) side, 2 acyl side, 3 side chain; on linkers, the order of the positions; unused ones are H or OH. Bridge positions count the residues as written; N and C are the ends. Square brackets hold non-standard residues; d marks the D form. Peptide text beside a SMILES is read from it. X1 = O=C(c1cc(/C(=N/O)[*:2])cc(/C(=N/O)[*:3])c1)[*:1]; d(aIle) = CC[C@H](C)[C@@H](N)C(=O)O

Assays:
[1] = Stability of bicyclic peptide in PBS at varied pH, monitored by LC-MS; type: physicochemical; settings: 200 μM in PBS, pH 5.1, pH 7.4 and pH 9.2, over 16 days
Description: FIGS. 37a-37c. FIG. 37a. LC-MS (280 nm) trace of the bicyclic peptide 5h in PBS pH 5.1 over 16 days. FIG. 37b. LC-MS (280 nm) trace of the bicyclic peptide 5h in PBS pH 7.4 over 16 days. FIG. 37c. LC-MS (280 nm) trace of the bicyclic peptide 5h in PBS pH 9.21 over 16 days.
The bicyclic peptide 5h was prepared according to above mentioned procedure and purified by RP-HPLC. The solution of bicyclic peptide 5h (200 μM) in PBS was incubated at pH 5.1, pH 7.4, and pH 9.2, respectively. The sample was analyzed by LC-MS at different time points over 16 days (Method C).

[2] = Stability of bicyclic peptide in DMSO-d6/PBS/D2O, monitored by 1H NMR; type: physicochemical; settings: 0.96 mM in DMSO-d6/PBS (pH 5.9)/D2O (1/8/1), 1 week
Description: FIG. 38. Stability studies of 5h (0.96 mM) in DMSO-d6/PBS (pH 5.9)/D2O (1/8/1) monitored by ^1H NMR.

[3] = Hydrolysis of OSu ester in aqueous acetone/PBS, monitored by 1H NMR; type: physicochemical
Excerpt: FIG. 15. Hydrolysis of OSu ester (S18) in 80% acetone/PBS (pH 7.4) monitored by ^1H NMR.
FIG. 16. Hydrolysis of OSu ester (S18) in 50% acetone/PBS (pH 7.4) monitored by ^1H NMR.

[4] = biological target: SARS-CoV-2 Spike RBD (SARS-CoV-2), P0DTC2; test: ELISA: plate coated with 100 nM SARS-CoV-2 Spike RBD, biotinylated bicyclic peptide titrated, streptavidin-HRP/TMB, A450; curve fitting

Molecule: CC[C@H](C)[C@H]1NC(=O)[C@H](CC(C)C)NC(=O)[C@H](C)NC(=O)c2cc3cc(c2)/C(=N/O)SC[C@H](NC(=O)CNC1=O)C(=O)N1CCC[C@H]1C(=O)N[C@@H](Cc1ccccc1)C(=O)N1CCC[C@H]1C(=O)N[C@@H](C)C(=O)N[C@@H](CCCNC(=N)N)C(=O)N[C@@H](Cc1c[nH]c2ccccc12)C(=O)N[C@H](C(N)=O)CS/C3=N\O [5h] (AL[d(aIle)]GCPFPARWC-NH2; linker N-5-12 via X1)
- Chemical stability in PBS (LC-MS profile) [1]: remained intact; also recorded: no change of the LC-MS profile
- Chemical stability (1H NMR profile) [2]: no change of NMR profile

Molecule: O=C(ON1C(=O)CCC1=O)c1ccc(/C=N/O)cc1 [S18]
- Percentage of S20 (%) ([3]; acetone-d6/PBS/D2O (5/4/1), 20 min): 12%
- Percentage of S20 (%) ([3]; acetone-d6/PBS/D2O (5/4/1), 1 h): 26%
- Percentage of S20 (%) ([3]; acetone-d6/PBS/D2O (5/4/1), 2 h): 33%
- Percentage of S20 (%) ([3]; acetone-d6/PBS/D2O (8/1/1), 20 min): trace
- Percentage of S20 (%) ([3]; acetone-d6/PBS/D2O (8/1/1), 1 h): trace
- Percentage of S20 (%) ([3]; acetone-d6/PBS/D2O (8/1/1), 20 h): 4%

- Kd [4]: 3000 nM
Molecule: AIDSCRYNHGWQC (modifications not checked) [bicyclized NP8 (…)]

- Kd [4]: 400 nM
Molecule: AISECNHIAEWMC (modifications not checked) [bicyclized NP10 (…)]
